Earlier results in paper PMC4411882, “Developmental Potential for Endomorphin Opioidmimetic Drugs” (International Journal of Medicinal Chemistry, 2012).
Where a SMILES comes first, the peptide text is derived from it. [ ]: non-standard residue; d: D form. The star is where a group is joined. Dmt = Cc1cc(O)cc(C)c1C[CH](N)C(=O)O; NHPhenethyl = c1ccc(CCN*)cc1; NHBn = c1ccc(CN*)cc1; NHPh = c1ccc(N*)cc1

Tests used:
[1] = molecular target: μ-opioid receptor (Rattus norvegicus, UniProt P33535); parameters: gene Oprm1; rat brain P2 synaptosomal preparations; species or system rat brain P2 synaptosomal preparations; settings: read-out: Kiμ
Sequence of μ-opioid receptor (P33535 whole entry): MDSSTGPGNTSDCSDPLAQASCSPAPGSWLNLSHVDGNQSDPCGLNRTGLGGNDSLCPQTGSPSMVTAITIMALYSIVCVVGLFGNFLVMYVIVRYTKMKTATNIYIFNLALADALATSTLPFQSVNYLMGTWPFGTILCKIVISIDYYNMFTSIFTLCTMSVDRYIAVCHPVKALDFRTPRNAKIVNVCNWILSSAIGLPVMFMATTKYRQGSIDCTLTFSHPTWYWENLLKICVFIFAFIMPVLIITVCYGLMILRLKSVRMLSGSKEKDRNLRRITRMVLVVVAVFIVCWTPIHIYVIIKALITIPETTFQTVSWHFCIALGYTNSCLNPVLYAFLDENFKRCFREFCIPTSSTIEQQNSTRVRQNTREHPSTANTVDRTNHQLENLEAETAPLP

[2] = molecular target: δ-opioid receptor (Rattus norvegicus, UniProt P33533); parameters: gene Oprd1; rat brain P2 synaptosomal preparations; species or system rat brain P2 synaptosomal preparations; settings: read-out: Kiδ
Sequence of δ-opioid receptor (P33533 whole entry): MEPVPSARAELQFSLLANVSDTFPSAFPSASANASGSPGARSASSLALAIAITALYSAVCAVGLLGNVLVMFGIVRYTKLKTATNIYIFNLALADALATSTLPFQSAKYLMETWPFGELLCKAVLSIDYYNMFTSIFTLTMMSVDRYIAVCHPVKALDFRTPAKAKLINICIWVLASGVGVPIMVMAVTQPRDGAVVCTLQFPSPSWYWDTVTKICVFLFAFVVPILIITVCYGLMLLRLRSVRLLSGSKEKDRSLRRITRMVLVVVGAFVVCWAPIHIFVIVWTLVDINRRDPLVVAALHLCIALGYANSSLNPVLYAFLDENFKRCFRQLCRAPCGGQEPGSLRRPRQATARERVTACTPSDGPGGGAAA

[3] = molecular target: T1, μ-opioid receptor (GPI) (Cavia porcellus, UniProt P97266); parameters: species or system guinea pig ileum
T1 construct: gene OPRM1; guinea pig ileum (GPI) bioassay
T1 sequence (P97266 whole entry): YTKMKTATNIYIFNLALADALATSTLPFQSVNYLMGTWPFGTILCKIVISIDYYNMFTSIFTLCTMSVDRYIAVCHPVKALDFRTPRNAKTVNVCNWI
Excerpt: (§1) Therefore, we substituted hydrophobic groups in lieu of the phenethyl group to develop the class of H-Dmt-Pro-Phe-NH-X ligands (Figure 1).

[4] = molecular target: T2, δ-opioid receptor (MVD) (Mus musculus, UniProt P32300); parameters: species or system mouse vas deferens
T2 construct: gene Oprd1; mouse vas deferens (MVD) bioassay
T2 sequence (P32300 whole entry): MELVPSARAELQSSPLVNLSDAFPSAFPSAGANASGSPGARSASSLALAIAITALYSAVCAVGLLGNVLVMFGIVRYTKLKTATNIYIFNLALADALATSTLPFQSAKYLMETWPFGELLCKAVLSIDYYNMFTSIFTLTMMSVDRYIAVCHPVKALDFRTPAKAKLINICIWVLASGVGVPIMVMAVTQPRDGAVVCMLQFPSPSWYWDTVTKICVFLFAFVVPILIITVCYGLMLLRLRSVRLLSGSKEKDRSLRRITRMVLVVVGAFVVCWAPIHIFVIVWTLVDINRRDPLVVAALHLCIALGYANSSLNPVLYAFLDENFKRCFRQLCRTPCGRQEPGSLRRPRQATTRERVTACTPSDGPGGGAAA
Excerpt: as §1

| Structure (SMILES) | Ki [1] [nM] | Ki [2] [nM] | IC50 [3] [nM] | IC50 [4] [nM] |
| --- | --- | --- | --- | --- |
| NC(=O)C(Cc1ccccc1)NC(=O)C(Cc1ccccc1)NC(=O)C1CCCN1C(=O)C(N)Cc1ccc(O)cc1 [compound 12, L-D-L-L (EM-2), [D-Pro^2]EM-2] | 512 |  |  |  |
| NC(=O)[C@H](Cc1ccccc1)NC(=O)[C@@H]1CCCN1C(=O)[C@@H](N)Cc1ccc(O)cc1 [compound 18, H-Tyr-Pro-Phe-NH2] (H-Tyr-Pro-Phe-NH2) | 46.1 | 15900 |  |  |
| Cc1cc(O)cc(C)c1C[C@H](N)C(=O)N1CCC[C@H]1C(=O)N[C@@H](Cc1c[nH]c2ccccc12)C(=O)N[C@@H](Cc1ccccc1)C(N)=O [compound 19, H-Dmt-Pro-Trp-Phe-NH2, [Dmt^1]EM-1] | 0.054 | 5.6 | 0.27 | > 10000 |
| Cc1cc(O)cc(C)c1C[C@H](N)C(=O)N1CCC[C@H]1C(=O)N[C@@H](Cc1ccccc1)C(=O)N[C@@H](Cc1ccccc1)C(N)=O [compound 20, H-Dmt-Pro-Phe-Phe-NH2, [Dmt^1]EM-2] | 0.15 | 28.2 | 0.07 | 1.87 |
| Cc1cc(O)cc(C)c1CC(N)C(=O)N1CCCC1C(=O)NC(Cc1ccccc1)C(N)=O (stereo not drawn) [compound 21, H-Dmt-Pro-Phe-NH2] (H-[Dmt]-Pro-Phe-NH2; configuration not given here) | 0.12 | 53.2 | 2.33 | 113 |
| Cc1cc(O)cc(C)c1C[C@H](N)C(=O)N1CCC[C@H]1C(=O)N[C@@H](Cc1ccccc1)C(=O)NCCc1ccccc1 [compound 22, H-Dmt-Pro-Phe-NH-C2H4-Ph] (H-[Dmt]-Pro-Phe-NHPhenethyl) | 0.51 | 18 | 5.03 | > 10000 |
| Cc1cc(O)cc(C)c1C[C@H](N)C(=O)N1CCC[C@H]1C(=O)N[C@@H](Cc1ccccc1)C(=O)NCc1ccccc1 [compound 23, H-Dmt-Pro-Phe-NH-Bzl] (H-[Dmt]-Pro-Phe-NHBn) | 0.52 | 13.8 | 22 | > 10000 |
| Cc1cc(O)cc(C)c1C[C@H](N)C(=O)N1CCC[C@H]1C(=O)N[C@@H](Cc1ccccc1)C(=O)Nc1ccccc1 [compound 24, H-Dmt-Pro-Phe-NH-Ph] (H-[Dmt]-Pro-Phe-NHPh) | 1.11 | 20.6 | 37.7 | > 10000 |
| Cc1cc(O)cc(C)c1C[C@H](N)C(=O)N1CCC[C@H]1C(=O)N[C@@H](Cc1ccccc1)C(=O)Nc1cccnc1 [compound 26, H-Dmt-Pro-Phe-NH-3-Pyr] | 0.17 | 287 | 72.8 | > 10000 |
| Cc1cc(O)cc(C)c1C[C@H](N)C(=O)N1CCC[C@H]1C(=O)N[C@@H](Cc1ccccc1)C(=O)Nc1ccccn1 [compound 27, H-Dmt-Pro-Phe-NH-2-Pyr] | 0.13 | 157 | 15 | > 10000 |
| Cc1cc(O)cc(C)c1C[C@H](N)C(=O)N1CCC[C@H]1C(=O)N[C@@H](Cc1ccccc1)C(=O)Nc1cccc2ccccc12 [compound 28, H-Dmt-Pro-Phe-NH-1-Nph] |  | 19.9 | 0.49 | 5.47 |
| Cc1cc(O)cc(C)c1C[C@H](N)C(=O)N1CCC[C@H]1C(=O)N[C@@H](Cc1ccccc1)C(=O)Nc1cnc2ccccc2c1 [compound 29, H-Dmt-Pro-Phe-NH-3-Qln] | 0.33 | 190 | 9.14 | > 10000 |
| Cc1cc(O)cc(C)c1C[C@H](N)C(=O)N1CCC[C@H]1C(=O)N[C@@H](Cc1ccccc1)C(=O)Nc1cccc2ncccc12 [compound 30, H-Dmt-Pro-Phe-NH-5-Qln] | 0.11 | 30 | 0.26 | 0.616 |
| Cc1cc(O)cc(C)c1C[C@H](N)C(=O)N1CCC[C@H]1C(=O)N[C@@H](Cc1ccccc1)C(=O)Nc1ccc2ncccc2c1 [compound 31, H-Dmt-Pro-Phe-NH-6-Qln] | 0.22 | 46.6 | 6.21 | > 10000 |
| Cc1cc(O)cc(C)c1C[C@H](N)C(=O)N1CCC[C@H]1C(=O)N[C@@H](Cc1ccccc1)C(=O)Nc1cccc2cccnc12 [compound 32, H-Dmt-Pro-Phe-NH-8-Qln] | 0.49 | 33.1 | 445 | 2980 |
| Cc1cc(O)cc(C)c1C[C@H](N)C(=O)N1CCC[C@H]1C(=O)N[C@@H](Cc1ccccc1)C(=O)Nc1cccc2cnccc12 [compound 33, H-Dmt-Pro-Phe-NH-5-Isq] | 0.19 | 98.3 | 0.94 | > 10000 |
| CCc1cc(O)cc(C)c1C[C@H](N)C(=O)N1CCC[C@H]1C(=O)N[C@@H](Cc1ccccc1)C(=O)N[C@@H](Cc1ccccc1)C(N)=O [compound 35, H-Emt-Pro-Phe-Phe-NH2] | 0.063 | 55.7 | 0.623 | 1.08 |
